Experimental data from ChEMBL document CHEMBL3991601, “The target landscape of clinical kinase drugs” (Science, 2017).
Active and inactive are the calls of the source.

Legend:
[1] = biological target: Cyclin-dependent kinase 10 (Homo sapiens, UniProt Q15131)
[2] = biological target: T1, Cyclin-dependent kinase-like 5 (Homo sapiens, UniProt O76039)
T1 sequence (O76039 whole entry): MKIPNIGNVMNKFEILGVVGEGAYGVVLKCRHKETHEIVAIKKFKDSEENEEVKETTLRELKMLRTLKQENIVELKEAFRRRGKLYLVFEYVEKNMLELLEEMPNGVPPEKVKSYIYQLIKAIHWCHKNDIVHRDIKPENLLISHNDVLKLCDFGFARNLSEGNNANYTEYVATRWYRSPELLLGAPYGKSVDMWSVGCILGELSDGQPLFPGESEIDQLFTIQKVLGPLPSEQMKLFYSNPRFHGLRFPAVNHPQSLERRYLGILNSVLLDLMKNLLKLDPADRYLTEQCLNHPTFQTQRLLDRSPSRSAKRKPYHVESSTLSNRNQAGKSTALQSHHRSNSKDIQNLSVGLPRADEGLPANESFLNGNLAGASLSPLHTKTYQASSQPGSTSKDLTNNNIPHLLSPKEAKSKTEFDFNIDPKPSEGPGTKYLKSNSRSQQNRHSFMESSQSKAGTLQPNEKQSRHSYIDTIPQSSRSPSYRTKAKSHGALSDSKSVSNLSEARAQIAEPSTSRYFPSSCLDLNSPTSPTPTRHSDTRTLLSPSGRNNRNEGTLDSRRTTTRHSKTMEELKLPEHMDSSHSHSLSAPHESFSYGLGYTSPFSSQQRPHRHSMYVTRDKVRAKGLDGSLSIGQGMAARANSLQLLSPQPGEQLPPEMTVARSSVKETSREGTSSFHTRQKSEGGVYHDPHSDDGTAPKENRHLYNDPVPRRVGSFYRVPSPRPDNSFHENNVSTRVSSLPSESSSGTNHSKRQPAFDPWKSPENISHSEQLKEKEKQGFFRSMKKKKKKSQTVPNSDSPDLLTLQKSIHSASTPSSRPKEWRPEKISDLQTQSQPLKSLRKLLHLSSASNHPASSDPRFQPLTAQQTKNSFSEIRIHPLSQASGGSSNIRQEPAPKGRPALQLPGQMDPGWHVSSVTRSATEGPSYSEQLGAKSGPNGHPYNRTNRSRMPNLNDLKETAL

[3] = biological target: Tyrosine-protein kinase Fgr (Homo sapiens, UniProt P09769)
[4] = biological target: Tyrosine-protein kinase Lck (Homo sapiens, UniProt P06239)
[5] = biological target: Mitogen-activated protein kinase 14 (Homo sapiens, UniProt Q16539)
[6] = biological target: Phosphatidylethanolamine-binding protein 1 (Homo sapiens, UniProt P30086)
[7] = biological target: Serine/threonine-protein kinase PLK1 (Homo sapiens, UniProt P53350)
[8] = biological target: T2, Protein kinase C zeta type (Homo sapiens, UniProt Q05513)
T2 sequence (Q05513 whole entry): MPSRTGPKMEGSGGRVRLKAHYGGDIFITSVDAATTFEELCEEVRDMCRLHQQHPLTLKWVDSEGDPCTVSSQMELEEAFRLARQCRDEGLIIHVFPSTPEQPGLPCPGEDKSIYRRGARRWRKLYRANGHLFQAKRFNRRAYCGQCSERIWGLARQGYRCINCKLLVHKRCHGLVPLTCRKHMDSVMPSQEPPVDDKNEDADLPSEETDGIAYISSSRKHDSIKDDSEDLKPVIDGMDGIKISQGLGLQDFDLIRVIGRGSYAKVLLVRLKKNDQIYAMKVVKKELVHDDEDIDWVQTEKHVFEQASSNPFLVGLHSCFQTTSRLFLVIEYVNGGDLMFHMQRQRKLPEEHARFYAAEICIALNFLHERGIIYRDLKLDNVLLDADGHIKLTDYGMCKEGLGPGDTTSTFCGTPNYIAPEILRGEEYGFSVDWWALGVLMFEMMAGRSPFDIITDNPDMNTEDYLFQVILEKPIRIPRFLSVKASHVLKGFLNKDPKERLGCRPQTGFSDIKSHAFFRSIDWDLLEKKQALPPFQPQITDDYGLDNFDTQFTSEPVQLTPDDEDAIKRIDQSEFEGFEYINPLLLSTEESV

[9] = biological target: Proto-oncogene tyrosine-protein kinase receptor Ret (Homo sapiens, UniProt P07949)
[10] = biological target: Serine/threonine-protein kinase pim-2 (Homo sapiens, UniProt Q9P1W9)
[11] = biological target: T3, Dual specificity mitogen-activated protein kinase kinase 4 (Homo sapiens, UniProt P45985)
T3 sequence (P45985 whole entry): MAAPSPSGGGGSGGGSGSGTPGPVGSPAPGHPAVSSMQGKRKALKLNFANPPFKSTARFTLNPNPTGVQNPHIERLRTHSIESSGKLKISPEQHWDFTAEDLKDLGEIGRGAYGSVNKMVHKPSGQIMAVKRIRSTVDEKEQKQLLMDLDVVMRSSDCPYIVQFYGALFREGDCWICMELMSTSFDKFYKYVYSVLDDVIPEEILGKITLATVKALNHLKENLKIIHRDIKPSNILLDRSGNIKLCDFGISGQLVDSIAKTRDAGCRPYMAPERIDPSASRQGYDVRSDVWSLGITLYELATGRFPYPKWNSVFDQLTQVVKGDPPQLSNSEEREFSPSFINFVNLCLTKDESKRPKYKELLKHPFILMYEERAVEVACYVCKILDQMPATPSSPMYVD
Further: in the data inactive means no Kd found up to 30 µM.

Serine/threonine-protein kinase PLK1, sequence (P53350 whole entry): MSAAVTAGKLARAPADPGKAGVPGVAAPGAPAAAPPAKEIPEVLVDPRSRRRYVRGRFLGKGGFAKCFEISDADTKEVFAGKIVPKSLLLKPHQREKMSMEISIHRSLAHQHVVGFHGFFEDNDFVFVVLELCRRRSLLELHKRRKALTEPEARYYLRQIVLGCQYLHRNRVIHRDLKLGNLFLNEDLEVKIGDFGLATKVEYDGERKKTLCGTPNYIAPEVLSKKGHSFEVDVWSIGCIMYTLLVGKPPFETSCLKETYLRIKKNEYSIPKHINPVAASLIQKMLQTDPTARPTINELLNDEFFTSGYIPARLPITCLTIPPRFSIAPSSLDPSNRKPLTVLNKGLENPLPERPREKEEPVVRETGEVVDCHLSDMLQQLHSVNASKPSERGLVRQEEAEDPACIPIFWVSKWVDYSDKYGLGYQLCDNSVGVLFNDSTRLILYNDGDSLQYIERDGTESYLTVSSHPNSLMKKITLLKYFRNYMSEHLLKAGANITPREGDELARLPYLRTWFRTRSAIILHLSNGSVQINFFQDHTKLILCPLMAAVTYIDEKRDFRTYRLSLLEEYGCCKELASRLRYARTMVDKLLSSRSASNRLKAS
Mitogen-activated protein kinase 14, sequence (Q16539 whole entry): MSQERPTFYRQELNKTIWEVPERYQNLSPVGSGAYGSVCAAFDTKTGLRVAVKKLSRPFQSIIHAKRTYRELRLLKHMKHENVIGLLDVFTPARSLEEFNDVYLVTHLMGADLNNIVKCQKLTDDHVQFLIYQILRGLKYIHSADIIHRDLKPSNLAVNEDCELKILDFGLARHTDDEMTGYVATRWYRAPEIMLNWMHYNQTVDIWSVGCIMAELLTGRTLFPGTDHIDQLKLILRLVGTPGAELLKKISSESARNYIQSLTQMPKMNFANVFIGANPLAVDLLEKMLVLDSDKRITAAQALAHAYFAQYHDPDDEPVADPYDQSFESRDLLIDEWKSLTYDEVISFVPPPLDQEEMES
Serine/threonine-protein kinase pim-2, sequence (Q9P1W9 whole entry): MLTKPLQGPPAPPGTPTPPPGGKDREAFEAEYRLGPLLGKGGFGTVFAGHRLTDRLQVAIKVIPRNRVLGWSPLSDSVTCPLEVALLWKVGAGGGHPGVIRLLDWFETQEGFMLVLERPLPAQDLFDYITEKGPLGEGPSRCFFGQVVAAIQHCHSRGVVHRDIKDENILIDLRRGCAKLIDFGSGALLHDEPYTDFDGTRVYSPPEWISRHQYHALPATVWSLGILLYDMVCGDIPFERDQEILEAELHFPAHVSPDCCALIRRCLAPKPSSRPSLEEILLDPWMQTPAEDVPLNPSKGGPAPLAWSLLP
Tyrosine-protein kinase Lck, sequence (P06239 whole entry): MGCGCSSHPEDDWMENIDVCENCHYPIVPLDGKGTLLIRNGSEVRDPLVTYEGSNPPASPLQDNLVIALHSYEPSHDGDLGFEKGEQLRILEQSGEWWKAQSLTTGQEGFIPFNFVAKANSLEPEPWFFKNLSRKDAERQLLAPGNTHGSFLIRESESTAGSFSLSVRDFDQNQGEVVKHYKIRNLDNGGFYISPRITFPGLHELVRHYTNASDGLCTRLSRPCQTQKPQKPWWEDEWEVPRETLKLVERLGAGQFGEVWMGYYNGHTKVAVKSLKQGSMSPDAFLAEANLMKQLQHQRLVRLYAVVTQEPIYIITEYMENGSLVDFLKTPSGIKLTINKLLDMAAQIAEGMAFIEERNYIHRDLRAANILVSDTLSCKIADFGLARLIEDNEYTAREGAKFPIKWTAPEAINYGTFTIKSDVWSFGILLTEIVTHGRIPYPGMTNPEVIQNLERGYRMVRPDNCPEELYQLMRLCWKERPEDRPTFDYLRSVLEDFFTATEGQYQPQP
Proto-oncogene tyrosine-protein kinase receptor Ret, sequence (P07949 whole entry): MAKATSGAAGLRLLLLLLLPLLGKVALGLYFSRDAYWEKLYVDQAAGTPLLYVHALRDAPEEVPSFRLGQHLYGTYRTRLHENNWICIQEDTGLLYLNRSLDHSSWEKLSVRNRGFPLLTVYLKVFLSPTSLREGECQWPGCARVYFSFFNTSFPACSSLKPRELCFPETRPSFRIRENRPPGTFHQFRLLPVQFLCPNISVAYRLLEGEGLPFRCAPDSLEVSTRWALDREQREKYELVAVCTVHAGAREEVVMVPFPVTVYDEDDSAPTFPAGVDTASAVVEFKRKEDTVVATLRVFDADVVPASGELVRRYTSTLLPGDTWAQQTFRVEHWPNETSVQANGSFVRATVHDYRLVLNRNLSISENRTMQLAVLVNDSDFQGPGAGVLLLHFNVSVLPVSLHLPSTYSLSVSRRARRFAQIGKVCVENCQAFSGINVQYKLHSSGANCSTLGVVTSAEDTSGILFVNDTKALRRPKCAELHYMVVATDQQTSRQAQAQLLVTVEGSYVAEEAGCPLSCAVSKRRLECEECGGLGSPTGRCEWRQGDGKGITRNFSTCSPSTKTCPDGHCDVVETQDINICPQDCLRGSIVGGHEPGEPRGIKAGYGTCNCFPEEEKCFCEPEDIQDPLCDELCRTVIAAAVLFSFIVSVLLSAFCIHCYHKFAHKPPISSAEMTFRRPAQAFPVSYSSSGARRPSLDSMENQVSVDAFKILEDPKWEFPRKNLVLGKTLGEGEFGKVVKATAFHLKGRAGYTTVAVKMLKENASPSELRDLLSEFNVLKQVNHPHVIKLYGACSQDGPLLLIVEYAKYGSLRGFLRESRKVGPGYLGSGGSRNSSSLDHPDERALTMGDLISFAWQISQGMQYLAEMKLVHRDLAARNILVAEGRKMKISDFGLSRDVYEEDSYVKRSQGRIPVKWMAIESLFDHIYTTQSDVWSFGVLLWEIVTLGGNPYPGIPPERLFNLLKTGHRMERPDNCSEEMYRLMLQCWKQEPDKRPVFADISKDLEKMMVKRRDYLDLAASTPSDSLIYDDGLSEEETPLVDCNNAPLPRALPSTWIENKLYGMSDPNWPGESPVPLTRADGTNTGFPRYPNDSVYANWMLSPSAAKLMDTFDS
Phosphatidylethanolamine-binding protein 1, sequence (P30086 whole entry): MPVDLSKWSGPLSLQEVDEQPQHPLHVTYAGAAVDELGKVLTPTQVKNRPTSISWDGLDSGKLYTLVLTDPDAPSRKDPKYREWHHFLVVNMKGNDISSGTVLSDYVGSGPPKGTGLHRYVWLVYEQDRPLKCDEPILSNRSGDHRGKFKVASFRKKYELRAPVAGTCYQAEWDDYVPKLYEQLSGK
Tyrosine-protein kinase Fgr, sequence (P09769 whole entry): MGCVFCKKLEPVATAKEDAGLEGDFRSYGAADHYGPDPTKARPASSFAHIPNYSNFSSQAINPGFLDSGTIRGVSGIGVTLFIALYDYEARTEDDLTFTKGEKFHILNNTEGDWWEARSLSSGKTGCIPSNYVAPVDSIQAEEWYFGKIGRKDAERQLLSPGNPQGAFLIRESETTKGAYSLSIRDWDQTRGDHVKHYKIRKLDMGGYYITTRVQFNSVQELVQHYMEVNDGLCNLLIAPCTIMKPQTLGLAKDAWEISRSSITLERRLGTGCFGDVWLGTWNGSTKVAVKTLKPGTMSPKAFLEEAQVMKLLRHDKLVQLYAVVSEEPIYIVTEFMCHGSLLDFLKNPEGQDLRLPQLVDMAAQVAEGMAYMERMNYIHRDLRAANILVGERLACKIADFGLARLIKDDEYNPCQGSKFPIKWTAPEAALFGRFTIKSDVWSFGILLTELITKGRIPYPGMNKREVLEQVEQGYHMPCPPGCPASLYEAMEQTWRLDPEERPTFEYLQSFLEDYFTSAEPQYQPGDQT
Cyclin-dependent kinase 10, sequence (Q15131 whole entry): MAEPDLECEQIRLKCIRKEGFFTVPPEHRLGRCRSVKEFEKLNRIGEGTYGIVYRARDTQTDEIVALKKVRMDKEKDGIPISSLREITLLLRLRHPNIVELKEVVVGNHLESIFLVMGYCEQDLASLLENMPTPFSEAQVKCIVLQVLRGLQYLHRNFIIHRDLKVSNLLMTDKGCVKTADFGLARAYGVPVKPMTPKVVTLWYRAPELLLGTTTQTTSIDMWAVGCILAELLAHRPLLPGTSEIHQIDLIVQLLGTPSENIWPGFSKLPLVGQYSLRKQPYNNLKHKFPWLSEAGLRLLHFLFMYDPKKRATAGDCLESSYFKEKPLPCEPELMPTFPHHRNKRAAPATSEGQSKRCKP

Kd [1]	Kd [2]	Kd [3]	Kd [4]	Kd [5]	Kd [6]	Kd [7]	Kd [8]	Kd [9]	Kd [10]	Kd [11]	Compound
> 30 µM (inactive)	> 30 µM (inactive)	> 30 µM (inactive)	> 30 µM (inactive)	> 30 µM (inactive)	> 30 µM (inactive)	> 30 µM (inactive)	> 30 µM (inactive)		> 30 µM (inactive)		CCc1cc2c(cc1N1CCC(N3CCOCC3)CC1)C(C)(C)c1[nH]c3cc(C#N)ccc3c1C2=O [ALECTINIB]
	> 30 µM (inactive)	> 30 µM (inactive)	> 30 µM (inactive)	> 30 µM (inactive)	> 30 µM (inactive)			> 30 µM (inactive)		> 30 µM (inactive)	COc1ccc2c(OCc3nnc4ccc(-c5ccccc5)nn34)ccnc2c1 [AMG-208]
		> 30 µM (inactive)	> 30 µM (inactive)	> 30 µM (inactive)	> 30 µM (inactive)	> 30 µM (inactive)		> 30 µM (inactive)	> 30 µM (inactive)		COc1ccc(-c2ccc3ncc4c(c3c2)n(-c2ccc(N3CCNCC3)c(C(F)(F)F)c2)c(=O)n4C)cn1 [BGT-226 FREE BASE]
	> 30 µM (inactive)	> 30 µM (inactive)	> 30 µM (inactive)	> 30 µM (inactive)	> 30 µM (inactive)	> 30 µM (inactive)	> 30 µM (inactive)	> 30 µM (inactive)	> 30 µM (inactive)	> 30 µM (inactive)	C#Cc1cccc(Nc2ncnc3cc4c(cc23)OCCOCCOCCO4)c1 [ICOTINIB]
		> 30 µM (inactive)	> 30 µM (inactive)			> 30 µM (inactive)		> 30 µM (inactive)	> 30 µM (inactive)	> 30 µM (inactive)	O=C(NOC[C@H](O)CO)c1ccc(F)c(F)c1Nc1ccc(I)cc1F [MIRDAMETINIB]
> 30 µM (inactive)	> 30 µM (inactive)	> 30 µM (inactive)	> 30 µM (inactive)	> 30 µM (inactive)		> 30 µM (inactive)	> 30 µM (inactive)	0.388 µM (active)	> 30 µM (inactive)		O=C(Nc1ccc(OC(F)(F)F)cc1)c1sccc1NCc1ccnc2ccccc12 [OSI-930]
> 30 µM (inactive)	> 30 µM (inactive)	> 30 µM (inactive)	> 30 µM (inactive)	> 30 µM (inactive)	> 30 µM (inactive)	> 30 µM (inactive)	10.4 µM	> 30 µM (inactive)		> 30 µM (inactive)	O=C(NC[C@H](O)CO)c1ccncc1Nc1ccc(I)cc1F [PIMASERTIB]
	> 30 µM (inactive)	> 30 µM (inactive)	> 30 µM (inactive)	> 30 µM (inactive)	> 30 µM (inactive)	> 30 µM (inactive)		> 30 µM (inactive)			CNC(=O)c1cccc(-c2ccc3c(N4CCOC[C@@H]4C)nc(N4CCOC[C@@H]4C)nc3n2)c1 [VISTUSERTIB]

Compound	Kd [1]	Kd [2]	Kd [3]	Kd [4]	Kd [5]	Kd [6]	Kd [7]	Kd [8]	Kd [9]	Kd [10]	Kd [11]
Cn1cc(-c2[nH]c3cc(NC(=O)[C@H](N)C4CCCCC4)cc4c3c2C=NNC4=O)cn1	> 30 µM (inactive)	> 30 µM (inactive)	> 30 µM (inactive)	1.38 µM (active)	> 30 µM (inactive)	> 30 µM (inactive)	> 30 µM (inactive)	> 30 µM (inactive)	0.01 µM (active)		
CC(C)CC(=O)Nc1[nH]nc2c1CN(C(=O)C1CCN(C)CC1)C2(C)C [PHA-793887]			> 30 µM (inactive)		> 30 µM (inactive)	> 30 µM (inactive)	> 30 µM (inactive)			> 30 µM (inactive)	
